Test results reported in patent US12473250B2, “Molecular design of new antibiotics and antibiotic adjuvants against MCR strains” (priority 2019, dated 2025).
Values after ≈ are worked out from the molar mass of the structure shown.

Assays:
Assay type in all cases: cell-based
[1] = system: colistin resistant MCR (+) E. Coli strains; assay: MIC, broth microdilution, compound alone; conditions: compound alone
Description: (§1) MIC experiments of the antimicrobial agents were determined by a modified broth microdilution method in accordance with the Clinical and Laboratory Standards Institute (CLSI) guidelines using 96 well culture plates. In brief, serial dilutions of all plates were prepared at different concentrations (μg). The inoculum suspension was prepared by adding isolated colonies from a 18-20 hours on TSA plate into phosphate buffer (0.31 mM, pH 7.2) or in water for injection (BBraun) and adjusting the suspension to a turbidity equivalent to 0.5 McFarland Standard. Each well contained a final bacterial concentration of approximately 5×10^5 colony forming units (CFU)/mL. The plate was covered and incubated at 35° C. for 24 hours. […] For the microdilution plates, turbidity in wells can be measured at OD600 using TECAN infinite M200Pro. MIC was determined as […] concentration that gives a 99 percent inhibition.

[2] = system: colistin resistant MCR (+) E. Coli strains; assay: Synergy study: colistin MIC in the presence of compound
Description: (§2) The MICs of the individual drugs and LC compound in combinations were determined using the broth microdilution technique as recommended by the CLSI whereby the two anti-microbial agents were added in an equal amount. (e.g.: 50 μL of Colistin: 50 μL of LC compounds). Diluted media containing compounds and antibiotics will be serially diluted 2-fold, and LC compounds and antibiotics alone or in combination will be assayed at fixed synergy concentration. In all cases, the lowest concentration at which no visible growth occurred was be recorded to be the MIC value of individual and combined antibacterial agents. The results were obtained after 24 hours of incubation.

[3] = system: colistin resistant MCR (−) E. Coli strains; assay: MIC, broth microdilution, compound alone
Description: as §1

[4] = system: colistin resistant MCR (−) E. Coli strains; assay: Synergy study: colistin MIC in the presence of compound
Description: as §2

[5] = strain 7028444207 (Table 1b), MCR (+)

Row | Structure (SMILES) | MIC ([1]; strain 6075066346, MCR (+)) | MIC ([1]; strain 6083655967, MCR (+)) | MIC ([1]; strain 6103645107, MCR (+)) | MIC ([1]; strain 6123520276, MCR (+)) | MIC ([1]; strain 7013177695, MCR (+)) | MIC ([1]; strain 7023436560, MCR (+)) | MIC [1, 5] | MIC ([1]; strain 7103531927, MCR (+)) | MIC ([3]; strain 6083672926, MCR (−)) | MIC ([3]; strain 7023446108, MCR (−)) | MIC ([3]; strain 7033607097, MCR (−)) | other results
1 | CCN(CC)CCCCOc1ccc(C2COc3c(ccc4c3C=CC(C)(C)O4)C2)c(OCCCCN(CC)CC)c1 (centres unmarked) [LC105] | 25 µg/mL (≈ 43.2 µM) | 25 µg/mL (≈ 43.2 µM) | 25 µg/mL (≈ 43.2 µM) | 25 µg/mL (≈ 43.2 µM) | 25 µg/mL (≈ 43.2 µM) | 25 µg/mL (≈ 43.2 µM) | 25 µg/mL (≈ 43.2 µM) | – | – | – | – | Colistin MIC in the presence of the compound ([2]; strain 6075066346, MCR(+), compound at 12.5 μg): 1.56 µg/mL; Colistin MIC in the presence of the compound ([2]; strain 6083655967, MCR(+), compound at 12.5 μg): 0.78 µg/mL; Colistin MIC in the presence of the compound ([2]; strain 6103645107, MCR(+), compound at 12.5 μg): 1.56 µg/mL; Colistin MIC in the presence of the compound ([2]; strain 6123520276, MCR(+), compound at 12.5 μg): 1.56 µg/mL; Colistin MIC in the presence of the compound ([2]; strain 7013177695, MCR(+), compound at 12.5 μg): 0.78 µg/mL; Colistin MIC in the presence of the compound ([2]; strain 7023436560, MCR(+), compound at 12.5 μg): 1.56 µg/mL; Colistin MIC in the presence of the compound ([2]; strain 7023444207, MCR(+), compound at 12.5 μg): 0.78 µg/mL
2 | CCN(CC)CCCCOc1ccc(/C=C/C(=O)c2ccc(OCCCCN(CC)CC)cc2O)cc1 [LC107] | >100 µg/mL | >100 µg/mL | >100 µg/mL | >100 µg/mL | >100 µg/mL | >100 µg/mL | >100 µg/mL | – | – | – | – | Colistin MIC in the presence of the compound ([2]; strain 6075066346, MCR(+), compound at 10 μg (Table 2a: 10 ug/ml)): 3.125 µg/mL; Colistin MIC in the presence of the compound ([2]; strain 6083655967, MCR(+), compound at 10 μg (Table 2a: 10 ug/ml)): 3.125 µg/mL; Colistin MIC in the presence of the compound ([2]; strain 6103645107, MCR(+), compound at 10 μg (Table 2a: 10 ug/ml)): 3.125 µg/mL; Colistin MIC in the presence of the compound ([2]; strain 6123520276, MCR(+), compound at 10 μg (Table 2a: 10 ug/ml)): 3.125 µg/mL; Colistin MIC in the presence of the compound ([2]; strain 7013177695, MCR(+), compound at 10 μg (Table 2a: 10 ug/ml)): 3.125 µg/mL; Colistin MIC in the presence of the compound ([2]; strain 7023436560, MCR(+), compound at 10 μg (Table 2a: 10 ug/ml)): 6.25 µg/mL; Colistin MIC in the presence of the compound ([2]; strain 7023444207, MCR(+), compound at 10 μg (Table 2a: 10 ug/ml)): 6.25 µg/mL
3 | CC(C)=CCc1c(OCCN(C)CCCN(C)C)ccc(C(=O)/C=C/c2ccc(OCCN(C)CCCN(C)C)cc2)c1O [LC140] | 12.5 µg/mL (≈ 20.5 µM) | 12.5 µg/mL (≈ 20.5 µM) | – | – | – | – | – | 25 µg/mL (≈ 41.1 µM) | 12.5 µg/mL (≈ 20.5 µM) | 12.5 µg/mL (≈ 20.5 µM) | 6.25 µg/mL (≈ 10.3 µM) | Colistin MIC in the presence of the compound ([4]; strain 6083672926, MCR(−), compound at 2 μg): 1.56 µg/mL; Colistin MIC in the presence of the compound ([4]; strain 7023446108, MCR(−), compound at 2 μg): 1.56 µg/mL; Colistin MIC in the presence of the compound ([4]; strain 7033607097, MCR(−), compound at 2 μg): 1.56 µg/mL
4 | CC(C)=CCc1c(OCCNCCN)ccc(C(=O)/C=C/c2ccc(OCCNCCN)cc2)c1O [LC143] | 6.25 µg/mL (≈ 12.6 µM) | 6.25 µg/mL (≈ 12.6 µM) | – | – | – | – | – | 12.5 µg/mL (≈ 25.2 µM) | 12.5 µg/mL (≈ 25.2 µM) | 6.25 µg/mL (≈ 12.6 µM) | 6.25 µg/mL (≈ 12.6 µM) | Colistin MIC in the presence of the compound ([4]; strain 6083672926, MCR(−), compound at 5 μg (Table 2a: 5 ug/ml)): ≤0.0975 µg/mL; Colistin MIC in the presence of the compound ([4]; strain 7023446108, MCR(−), compound at 5 μg (Table 2a: 5 ug/ml)): ≤0.0975 µg/mL; Colistin MIC in the presence of the compound ([4]; strain 7033607097, MCR(−), compound at 5 μg (Table 2a: 5 ug/ml)): ≤0.0975 µg/mL
5 | Cc1cc(OCCCCN(Cc2ccccn2)Cc2ccccn2)cc(OCCCCN(Cc2ccccn2)Cc2ccccn2)c1 [Orc-DPA] | – | – | – | – | – | – | – | – | – | – | – | concentration at which the compound shows synergy with colistin ([2]; against mcr-1 bacteria): 50 µg/mL
